From article PMC11595689, “Aeruginosin 525 (AER525) from Cyanobacterium Aphanizomenon Sp. (KUCC C2): A New Serine Proteases Inhibitor” (Marine Drugs, 2024)
“Also recorded” adds a separate entry of the source.

What was measured:
thrombin = target: T1, thrombin (Homo sapiens, UniProt P00734); assay: Thrombin inhibition assay; assay type: biochemical
T1 construct: purchased Sigma Aldrich
Experimental: (§1) The enzyme inhibitory activity of fractions and AER525 was tested against trypsin [55], chymotrypsin [56], thrombin [56], elastase, and carboxypeptidase A [56]. For full details on trypsin, chymotrypsin, thrombin, and elastase inhibition assay refer to the work of Overlingė et al.. In the carboxypeptidase A assay, the final concentration of the enzyme was 1.6 µM, N-(4-methoxy-phenyl-azoformyl)-Phe-OH (GLPBIO Technology LLC; Montclair, CA, USA) at a concentration of 0.2 mg mL^−1 served as a substrate, and the carboxypeptidase inhibitor from potato tuber was used at a concentration range of 2.5–150 µg mL^−1. Mixtures containing the sample (10 µL) or inhibitor (10 µL) were preincubated with the enzyme (10 µL) and buffer (160 µL; 50 mM Tris-HCl at pH 7.5) at 25 °C. After 10 min, the substrate (20 µL) was added, and the reaction mixture was incubated for another 10 min at 25 °C. The absorbance of the solutions was measured at 350 nm with the application of a microplate reader (Varioskan Flash, Thermo Fisher Scientific OY, Vantaa, Finland). All enzymes were from Sigma Aldrich (St. Louis, MO, USA); 1% v/v DMSO was used to dissolve fractions at final concentrations of 45 µg mL^−1, while for pure AER525, it was additionally serially diluted to 45, 4.5, 0.45, and 0.045 µg mL^−1. […]

elastase = assay: Elastase inhibition assay; assay type: biochemical; conditions: highest concentration 45 µg mL^−1
Experimental: as §1

chymotrypsin = target: T2, chymotrypsin (Bos taurus, UniProt P00766); assay: Chymotrypsin inhibition assay; assay type: biochemical; conditions: highest concentration 45 µg mL^−1
T2 construct: purchased Sigma Aldrich
Experimental: as §1

[1] = ref [10],[11]; cited from earlier work
Text: (§2) In addition to the nutritional properties of Aphanizomenon, assessed mainly based on the analyses of extracts, there are several studies showing that the cyanobacterium produces metabolites of significant biological activities.

[2] = system: human cytosolic enzyme which is involved both in tumor progression and phytochemical bioavailability; conditions: ref [12]; cited from earlier work
Text: as §2

Row | Compound | activity against thrombin (in words) (thrombin) | potency of thrombin inhibition, AER525 compared with dysinosin D (in words) (thrombin) | activity against elastase (in words) (elastase) | Elastase enzyme inhibition (IC50) (elastase; triplicates) | activity against chymotrypsin (in words) (chymotrypsin) | alleviating depression and anxiety symptoms (in words) [1] | inhibition of the human cytosolic enzyme (in words) [2]
1 | CC(C)C[C@@H](NC(=O)[C@@H](N)CO)C(=O)N1[C@H](C(=O)N[C@H](C=O)CCCNC(=N)N)C[C@@H]2CC[C@@H](O)C[C@@H]21 [AER525] | potent activity; also recorded: strong thrombin-inhibitory activity | comparable potency | no effect; also recorded: No activity | - (not active (inhibition below 10%)) | no effect | – | –
2 | NCCc1ccccc1 [β-phenylethylamine] | – | – | – | – | – | showed effectiveness in alleviating depression and anxiety symptoms | acted as inhibitors
3 | phycocyanobilin | – | – | – | – | – | showed effectiveness in alleviating depression and anxiety symptoms | acted as inhibitors
